pEC50, pIC50: −log10 of the molar value. Counter-ions that a name gives are not always drawn. Like-named read-outs stand apart in the source and are kept apart here. Blank lines part the entries; values can stand above or below the compound they belong to.
Tests used:
Compound E = assay: Inhibition of contraction of guinea pig ileum induced by Compound E; format: cell-based; conditions: Cavia porcellus
natural SRS-A = assay: Inhibition of contraction of guinea pig ileum induced by natural SRS-A; format: cell-based; conditions: Cavia porcellus; read-out: IC50 against natural SRS-A
Experimental: (§1) SRS-A was assayed utilizing the procedure described by Orange and Austen, J. Immunol. 10, 105 (1969) as follows: a 1.5 cm segment of ileum was removed from male guinea pigs weighing from 250 to 300 grams. The segment of ileum was suspended in a 10 ml organ bath containing Tyrodes solution. The ileum was attached to a strain gauge transducer and contractions were recorded on a strip chart recorder. The bath contained 10^-6 M atropine sulfate to block contractions which might be caused by acetylcholine and 10^-6 M pyrilamine maleate to block histamine-induced contractions. The bath was maintained at 37° C. and gassed with a mixture of 95% O2 and 5% CO2. The concentration of SRS-A in the filtrate obtained by challenging lung tissue with egg albumin was determined by comparing the contraction solicited by a given volume of the filtrate with the contraction elicited by […] of histamine (in the absence of pyrilamine maleate). One unit of SRS-A is equivalent to that quantity which will give the same contraction as this amount of histamine. […] After standardization, this SRS-A was stored in small aliquots at -80° C. for further use. […]
(§2) The assay was carried out as described in Example 23. […] The difference in the level of the contraction obtained in the absence and presence of varying concentrations of Compound I was determined. […]

Compound B = assay: Inhibition of contraction of guinea pig ileum induced by Compound B; format: cell-based; conditions: Compound B at its EC50, n=1, extrapolated from graph
Experimental: as §1, §2

guinea pig ileum = assay: SRS-A activity: contraction of isolated guinea pig ileum (bioassay); format: cell-based; conditions: read-out: EC50 (concentration giving 50% of the maximal contraction of the ileum produced by natural SRS-A), 37° C, atropine sulfate 10^-6 M and pyrilamine maleate 10^-6 M in bath, average ± S.E., n = 2-5 ileums
Experimental: SRS-A was assayed utilizing the procedure described by Orange and Austen, J. Immunol. […] The segment of ileum was suspended in a 10 ml organ bath containing Tyrodes solution. The ileum was attached to a strain gauge transducer and contractions were recorded on a strip chart recorder. The bath contained 10^-6 M atropine sulfate to block contractions which might be caused by acetylcholine and 10^-6 M pyrilamine maleate to block histamine-induced contractions. The bath was maintained at 37° C. and gassed with a mixture of 95% O2 and 5% CO2. The concentration of SRS-A in the filtrate obtained by challenging lung tissue with egg albumin was determined by comparing the contraction solicited by a given volume of the filtrate with the contraction elicited by […] of histamine (in the absence of pyrilamine maleate). One unit of SRS-A is equivalent to that quantity which will give the same contraction as this amount of histamine. […] After standardization, this SRS-A was stored in small aliquots at -80° C. for further use.

[1] = background, literature; cited from earlier work

- pIC50 (Compound E; Example 26, SRS-A active compound used: Compound E, n=1, read-out: IC50 (antagonist against synthetic Compound E)): 5.00
Compound: CCCCCC#CCC#C/C=C/C=C/[C@H]1O[C@@H]1CCCC(=O)OC (relative stereo) [(R,S) (All E)-3-(1,3-tetradecadien-5,8-diynyl)-trans-oxiranebutanoic acid methyl ester]

- pEC50 (guinea pig ileum; Cavia porcellus): 5.96
Compound: CCCCCC#CCC#C/C=C/C=C/[C@@H](SC[C@H](N)C(=O)O)[C@@H](O)CCCC(=O)O [D, (5S,6R) (E,E)-S-(5-hydroxy-1-hydroxy-1-oxoeicosa-7,9-dien-11,14-diyn-6-yl)-L-cysteine mono ammonium salt]

- pEC50 (guinea pig ileum): 7.55
Compound: (5R,6S) (E,E,Z,Z)-S-(5-hydroxy-1-methoxy-1-oxoeicosa-7,9,11,14-tetraen-6-yl)-L-cysteine mono ammonium salt

More lines, now with the values behind:

Compound: CCCc1c(OCC(O)COc2ccc3c(=O)cc(C(=O)O)oc3c2CCC)ccc(C(C)=O)c1O (centres unmarked) [Compound I, 7-[3-(4-acetyl-3-hydroxy-2-propylphenoxy)-2-hydroxypropoxy]-4-oxo-8-propyl-4H-benzopyran-2-carboxylic acid]
- pIC50 (natural SRS-A): 7.43
- pIC50 (Compound B; Cavia porcellus, read-out: IC50 against Compound B, 3 min preincubation): 7.46
- pIC50 (Compound B; read-out: IC50 against Compound B, 3 min preincubation): 7.40
- pIC50 (Compound E; read-out: IC50 against Compound E): 7.40

Compound: CCCCCC=CCC=CC=CC=CC(SCC(N)C(=O)O)C(O)CCCC(=O)O (centres unmarked) [compound obtained by Samuelsson]
- SRS-A activity [1]: found to have SRS-A activity
